Test results reported in patent US12398143B2, “Imidazopyrazine derivatives and the use thereof as medicament” (Boehringer Ingelheim International GmbH, priority 2019, dated 2025).

Columns and labels:
NMDA NR1/NR2B receptor = biological target: T1, NMDA NR1/NR2B receptor (Homo sapiens, UniProt Q05586+Q13224); experiment: NMDA NR1/NR2B FLIPR calcium assay in HEK293 cells; assay type: cell-based; details: HEK293 with tetracyclin-inducible NR1/NR2B; 20 μM glycine/1 μM glutamate; compounds of the invention; read-out: IC50 (in vitro affinity as obtained in the FLIPR assay)
T1 construct: host or cells: HEK293, tetracycline-inducible
Method: A human HEK293 cell line with tetracyclin-inducible expression of NMDA NR1/NR2B receptor was used as a test system for compound efficacy and potency. The cell line was purchased from ChanTest, Catalog #CT6121. Compound activity was determined by measuring the effect of compounds on intracellular calcium concentration induced by glycine/glutamate agonism in a FLIPRtetra system (Molecular Devices).
The cells were obtained as frozen cells in cryo-vials and stored until use at −150° C. Cells were grown in culture medium (DMEM/F12, 10% FBS, 5 μg/mL Blasticidin, 150 μg/mL Zeozin, 500 μg/mL Geneticin). […] For sub-culturing the cells were detached from flasks by Versene. For the assay, cells were detached, washed twice with induction medium (DMEM/F12 without glutamine, 10% FBS, 2 μg/mL Tetracycline, 2 mM Ketamine) and seeded to 384 well pure coat amine plates (BD 359324, 50000 cells per well in 50 μl) 48 h prior to assay in induction medium.
The test compounds were dissolved in 100% DMSO at a concentration of 10 mM and in a first step diluted in DMSO to a concentration of 5 mM, followed by serial dilution steps in 100% DMSO. Dilution factor and number of dilution steps may vary according to needs. Typically 8 different concentrations by 1:5 dilutions were prepared in duplicate, further intermediate dilutions (1:37.5) of the substances were carried out with aqueous assay buffer (137 mM NaCl, 4 mM KCl, 1.8 mM CaCl, 10 mM HEPES, 10 mM Glucose, pH 7,4) resulting in a compound concentration 3 times above the final test concentration and DMSO at 2.7% resulting in 0.9% final DMSO concentration in the assay.
At the assay day cells were washed 3× with assay buffer, 10 μL buffer remained in the wells after washing. 10 μL Ca kit loading buffer (AAT Bioquest) was added to the cells and the plates were incubated with lid for 60 minutes at r.t. 20 μl assay buffer containing 60 μM glycine (20 μM final) and 3 μM glutamate (1 μM final) was added to column 1-23. Fluorescence (indicating the calcium influx as a result of the NR1/NR2B ion channel activation) was read on the FLIPRtetra device for 60 seconds to monitor the glutamate induced effects. After 2 minutes 20 μL of compound or controls (row 1-22) in assay buffer were carefully added to the wells. […] The average of 2 measurements at 5 minutes and 5 min 10 seconds after compound addition is calculated and further used for IC50 calculations. Each assay microtiter plate contained wells (in column 23 or 24) with DMSO controls instead of compound as controls for glycine/glutamate induced fluorescence (high controls) and wells with 1 μM of a reference NR2b NAM as low controls (Compound 22; reference: Layton, Mark E et al, ACS Chemical Neuroscience 2011, 2(7), 352-362).
The output file of the reader contains the well number and measured average fluorescence units. For data evaluation and calculation, the measurement of the low control was set as 0% control and the measurement of the high control was set as 100% control. The IC50 values were calculated using the standard 4 parameter logistic regression formula. Calculation: [y=(a−d)/(1+(x/c)^B)+d], a=low value, d=high value; x=conc M; c=IC50 M; b=slope.

human MDR1 (P-gp) = biological target: T2, human MDR1 (P-gp) (Homo sapiens, UniProt P08183); experiment: MDCK assay MDR-1 (p-GP) permeability; assay type: in vitro ADME; details: dog, MDCK-MDR1 monolayers; for efflux ratio at 2 h: pH 7.4, Papp (b-a)/Papp (a-b); for Papp A→B at 2 h: apical-to-basal, pH 7.4, 1 or 10 μM
T2 construct: expressed in transfected cells; host or cells: MDCKII (Madin-Darby canine kidney)
Method: The MDCK assays provide information on the potential of a compound to pass the blood brain barrier. Permeability measurements across polarized, confluent MDCK-MDR1 cell monolayers grown on permeable filter supports are used as an in vitro absorption model: apparent permeability coefficients (PE) of the compounds across the MDCK-MDR1 cell monolayers are measured (pH 7.4, 37° C.) in apical-to-basal (AB) and basal-to-apical (BA) transport direction. The AB permeability (PEAB) represents drug absorption from the blood into the brain and the BA permeability (PEBA) drug efflux from the brain back into the blood via both, passive permeability as well as active transport mechanisms mediated by efflux and uptake transporters that are expressed on the MDCK-MDR1 cells, predominantly by the overexpressed human MDR1. Identical or similar permeabilities in both transport directions indicate passive permeation, vectorial permeability points to additional active transport mechanisms. Higher PEBA than PEAB (PEBA/PEAB>5) indicates the involvement of active efflux mediated by MDR1, which might compromise the goal to achieve sufficient brain exposure. Therefore, this assay provides valuable support for selection of compounds applicable for further in vivo testing. High permeability not limited by efflux at the blood brain barrier is a favourable characteristic for compounds that are to be used for drugs acting primarily in the CNS. Consequently, to ensure high permeability at the blood brain barrier, it is highly preferred to minimize the efflux (efflux<5) at MDR1 transporter.
Apparent permeability coefficients (Papp) of the compounds across the MDCK-MDR1 monolayers (MDCKII cells transfected with human MDR1 cDNA expression plasmid) are measured in apical-to-basal (AB) and basal-to-apical (BA) direction.
MDCK-MDR1 cells (6×10^5 cells/cm^2) are seeded on filter inserts (Corning, Transwell, polycarbonate, 0.4 μm pore size) and cultured for 9 to 10 days. Compounds dissolved in DMSO stock solution (1-20 mM) are diluted with HTP-4 aqueous buffer (128.13 mM NaCl, 5.36 mM KCl, 1 mM MgSO4, 1.8 mM CaCl2), 4.17 mM NaHCO3, 1.19 mM Na2HPO4, 0.41 mM NaH2PO4, 15 mM HEPES, 20 mM glucose, pH 7.4) supplemented with 0.25% BSA to prepare the transport solutions (final concentration: 1 or 10 μM, final DMSO <=0.5%). The transport solution is applied to the apical or basolateral donor side for measuring A-B or B-A permeability, respectively. The receiver side contains HTP-4 buffer supplemented with 0.25% BSA. Samples are collected at the start and end of experiment from the donor and at various time intervals for up to 2 hours also from the receiver side for concentration measurement by HPLC-MS/MS.
Sampled receiver volumes are replaced with fresh receiver solution. Efflux ratio is calculated dividing the Papp (b-a) values by the Papp (a-b) values.

[1] = Metabolic stability in human liver microsomes; assay type: in vitro ADME; details: pooled human liver microsomes, pH 7.6, 37° C., 1 mg/mL microsomal protein, 1 μM compound, NADPH 1 mM, read-out: Half-life - t½ human liver microsomes
From the text: Stability in human liver microsomes refers to the susceptibility of compounds to bio-transformation in the context of selecting and/or designing drugs with favorable pharmacokinetic properties. The primary site of metabolism for many drugs is the liver. Human liver microsomes contain the cytochrome P450s (CYPs), and thus represent a model system for studying drug metabolization in vitro. Enhanced stability in human liver microsomes is associated with several advantages, including increased bioavailability and adequate half-life, which can enable lower and less frequent dosing of patients. Thus, enhanced stability in human liver microsomes is a favorable characteristic for compounds that are to be used for drugs.
The metabolic degradation of the test compound was assayed at 37° C. with pooled human liver microsomes. The final incubation volume of […] per time point contains TRIS buffer pH 7.6 at room temperature (0.1 M), magnesium chloride (5 mM aqueous solution), microsomal protein (1 mg/mL for human) and the test compound at a final concentration of 1 μM. Following a short preincubation period at 37° C., the reactions were initiated by addition of betanicotinamide adenine dinucleotide phosphate, reduced form (NADPH, 1 mM), and terminated by transferring an aliquot into solvent after different time points. After centrifugation (10000 g, 5 min), an aliquot of the supernatant was assayed by LC-MS/MS for the amount of parent compound. The half-life was determined by the slope of the semi-logarithmic plot of the concentration-time profile.

T1 sequence (Q13224 27-1484, other chains not shown): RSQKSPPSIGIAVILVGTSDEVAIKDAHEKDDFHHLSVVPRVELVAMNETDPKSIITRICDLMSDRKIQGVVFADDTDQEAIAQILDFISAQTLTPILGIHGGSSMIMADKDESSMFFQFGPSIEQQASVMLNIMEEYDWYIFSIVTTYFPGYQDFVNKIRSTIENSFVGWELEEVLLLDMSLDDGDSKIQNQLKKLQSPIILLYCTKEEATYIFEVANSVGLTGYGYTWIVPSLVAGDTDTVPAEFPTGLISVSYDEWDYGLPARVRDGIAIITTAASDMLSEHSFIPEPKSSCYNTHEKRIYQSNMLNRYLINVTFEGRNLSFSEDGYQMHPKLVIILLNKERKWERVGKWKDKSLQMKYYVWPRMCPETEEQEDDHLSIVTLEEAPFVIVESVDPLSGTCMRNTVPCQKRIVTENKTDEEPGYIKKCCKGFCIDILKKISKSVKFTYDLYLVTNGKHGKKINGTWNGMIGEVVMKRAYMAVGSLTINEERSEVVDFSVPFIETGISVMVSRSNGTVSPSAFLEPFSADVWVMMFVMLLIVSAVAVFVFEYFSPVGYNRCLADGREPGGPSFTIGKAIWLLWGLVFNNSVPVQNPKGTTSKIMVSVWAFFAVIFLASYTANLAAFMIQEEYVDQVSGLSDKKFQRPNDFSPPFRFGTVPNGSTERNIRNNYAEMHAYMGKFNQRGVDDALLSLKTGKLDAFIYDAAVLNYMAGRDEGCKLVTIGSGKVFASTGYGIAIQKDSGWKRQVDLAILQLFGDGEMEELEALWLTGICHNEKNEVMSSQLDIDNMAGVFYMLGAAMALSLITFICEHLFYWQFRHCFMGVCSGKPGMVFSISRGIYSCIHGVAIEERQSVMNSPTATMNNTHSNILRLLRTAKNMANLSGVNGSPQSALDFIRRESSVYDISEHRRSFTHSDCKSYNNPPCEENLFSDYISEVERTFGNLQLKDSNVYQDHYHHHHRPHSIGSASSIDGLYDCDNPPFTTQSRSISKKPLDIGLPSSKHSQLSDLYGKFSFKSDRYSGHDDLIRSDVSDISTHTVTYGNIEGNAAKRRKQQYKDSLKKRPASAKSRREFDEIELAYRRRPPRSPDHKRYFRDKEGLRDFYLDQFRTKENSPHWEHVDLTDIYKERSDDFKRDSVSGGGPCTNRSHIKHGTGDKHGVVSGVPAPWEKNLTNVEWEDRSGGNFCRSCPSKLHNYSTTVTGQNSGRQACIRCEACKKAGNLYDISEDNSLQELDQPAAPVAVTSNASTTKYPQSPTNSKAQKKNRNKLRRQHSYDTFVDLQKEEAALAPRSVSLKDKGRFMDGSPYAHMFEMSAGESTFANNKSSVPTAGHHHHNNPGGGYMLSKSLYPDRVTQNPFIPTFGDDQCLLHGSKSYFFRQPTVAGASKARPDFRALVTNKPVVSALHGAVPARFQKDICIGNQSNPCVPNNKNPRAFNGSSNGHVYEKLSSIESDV
T2 sequence (P08183 whole entry): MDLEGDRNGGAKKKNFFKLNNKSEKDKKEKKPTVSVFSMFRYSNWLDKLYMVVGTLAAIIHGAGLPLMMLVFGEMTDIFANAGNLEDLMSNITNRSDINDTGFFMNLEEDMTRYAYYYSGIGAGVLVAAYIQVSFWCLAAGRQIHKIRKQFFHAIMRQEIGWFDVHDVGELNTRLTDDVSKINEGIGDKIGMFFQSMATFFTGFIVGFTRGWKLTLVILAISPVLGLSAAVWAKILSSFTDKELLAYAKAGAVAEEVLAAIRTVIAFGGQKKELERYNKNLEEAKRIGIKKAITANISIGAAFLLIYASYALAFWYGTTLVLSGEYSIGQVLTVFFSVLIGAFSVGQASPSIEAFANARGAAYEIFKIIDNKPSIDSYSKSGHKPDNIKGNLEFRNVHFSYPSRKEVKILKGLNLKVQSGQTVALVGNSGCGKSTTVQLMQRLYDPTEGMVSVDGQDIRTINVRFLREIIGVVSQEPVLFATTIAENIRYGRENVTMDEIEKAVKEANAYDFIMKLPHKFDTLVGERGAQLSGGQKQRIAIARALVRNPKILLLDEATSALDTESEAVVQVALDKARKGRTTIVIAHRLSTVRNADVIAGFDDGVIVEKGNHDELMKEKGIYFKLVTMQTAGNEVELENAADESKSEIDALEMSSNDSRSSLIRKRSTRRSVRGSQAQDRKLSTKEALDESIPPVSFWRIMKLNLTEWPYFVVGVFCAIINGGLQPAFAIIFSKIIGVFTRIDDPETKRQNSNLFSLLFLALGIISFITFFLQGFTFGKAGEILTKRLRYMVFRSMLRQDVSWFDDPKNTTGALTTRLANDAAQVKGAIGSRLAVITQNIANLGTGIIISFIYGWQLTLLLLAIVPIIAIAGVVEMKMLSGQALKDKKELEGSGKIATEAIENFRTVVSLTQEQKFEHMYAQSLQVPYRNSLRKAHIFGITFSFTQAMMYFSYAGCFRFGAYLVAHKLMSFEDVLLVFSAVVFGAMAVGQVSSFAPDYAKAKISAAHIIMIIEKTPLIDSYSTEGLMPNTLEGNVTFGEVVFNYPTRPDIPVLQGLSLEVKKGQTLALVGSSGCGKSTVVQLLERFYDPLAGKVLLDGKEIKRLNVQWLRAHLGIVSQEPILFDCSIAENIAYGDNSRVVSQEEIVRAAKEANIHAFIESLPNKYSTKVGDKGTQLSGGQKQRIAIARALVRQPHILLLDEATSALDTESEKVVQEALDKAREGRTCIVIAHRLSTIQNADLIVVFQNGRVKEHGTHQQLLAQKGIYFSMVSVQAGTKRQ

| Compound | IC50 (NMDA NR1/NR2B receptor) | efflux ratio at 2 h (human MDR1 (P-gp)) | Papp A→B at 2 h (human MDR1 (P-gp)) | half-life at 1 μM [1] |
| --- | --- | --- | --- | --- |
| Cc1cccc(COC(=O)N2CCO[C@H](c3nc4nccnc4[nH]3)C2)c1F [Example 3] | 725 nM | 0.7 | 61 ×10⁻⁶ cm/s | 8 min |
| O=C(OCc1ccc(F)cc1)N1CCO[C@H](c2nc3nccnc3[nH]2)C1 [Example 10] | 735 nM | 2.9 | 23 ×10⁻⁶ cm/s | > 130 min |
| Cc1ccc(COC(=O)N2CCO[C@H](c3nc4nccnc4[nH]3)C2)cc1 [Example 12] | 210 nM | 1.8 | 31 ×10⁻⁶ cm/s | 36 min |

Second part, the compound after the results:

| IC50 (NMDA NR1/NR2B receptor) | efflux ratio at 2 h (human MDR1 (P-gp)) | Papp A→B at 2 h (human MDR1 (P-gp)) | half-life at 1 μM [1] | Compound |
| --- | --- | --- | --- | --- |
| 477 nM | 1.4 | 40 ×10⁻⁶ cm/s | > 130 min | O=C(OCc1ccc(F)cc1F)N1CCO[C@H](c2nc3nccnc3[nH]2)C1 [Example 5] |
| 382 nM | 0.8 | 57 ×10⁻⁶ cm/s | > 130 min | O=C(OCc1ccccc1F)N1CCO[C@H](c2nc3nccnc3[nH]2)C1 [Example 4] |
| 90 nM | 1.6 | 33 ×10⁻⁶ cm/s | 31.5 min | Cc1ccc(COC(=O)N2CCO[C@H](c3nc4nccnc4[nH]3)C2)c(F)c1 [Example 1] |
